Experimental data as given in patent US20250205176A1, “SOLID COMPOSITION CONTAINING FORM II-TYPE CRYSTAL OF REDUCED COENZYME Q10” (KANEKA CORPORATION, priority 2022, published 2025).

Test: Reference Example: half-life period and stabilization degree from QH residual rate after 14 days storage
Format: physicochemical
Conditions: for Half-life Period: number of days required for the QH residual rate to reach 50%, from storage at 25° C. and 60% RH for 14 days
Procedure: The reduced coenzyme Q10 Form I crystal (Form I-crystal), the particulate solid composition produced using the reduced coenzyme Q10 Form I crystal in the same manner as in Comparative Example 1 (Form I-stabilized composition), the reduced coenzyme Q10 Form II crystal (Form II-crystal), and the particulate solid composition produced using the reduced coenzyme Q10 Form II crystal in the same manner as in Example 1 (A-1) (Form II-stabilized composition) were stored at 25° C. and 60% RH for 14 days. From the QH residual rate after storage, the half-life period, which is the number of days required for the QH residual rate to reach 50%, and the stabilization degree, which is the ratio of the half-life period of the stabilized composition to the half-life period of each crystal, were determined and shown in Table 17.

| SMILES | Half-life Period [days] | stability relative to the Form I crystal (25° C. and 60% RH) [times] |
| --- | --- | --- |
| COc1c(O)c(C)c(C/C=C(\C)CC/C=C(\C)CC/C=C(\C)CC/C=C(\C)CC/C=C(\C)CC/C=C(\C)CC/C=C(\C)CC/C=C(\C)CC/C=C(\C)CCC=C(C)C)c(O)c1OC [Form I - crystal, reduced coenzyme Q10] | 14 | – |
| COc1c(O)c(C)c(C/C=C(\C)CC/C=C(\C)CC/C=C(\C)CC/C=C(\C)CC/C=C(\C)CC/C=C(\C)CC/C=C(\C)CC/C=C(\C)CC/C=C(\C)CCC=C(C)C)c(O)c1OC [Form II - crystal, reduced coenzyme Q10] | 189 | 14 |
